In this assay the target is PI3Kalpha (Homo sapiens (Human), UniProt P42336). Particulars: read-out: IC50 PI3K.
Sequence of PI3Kalpha (P42336 whole entry, looked up): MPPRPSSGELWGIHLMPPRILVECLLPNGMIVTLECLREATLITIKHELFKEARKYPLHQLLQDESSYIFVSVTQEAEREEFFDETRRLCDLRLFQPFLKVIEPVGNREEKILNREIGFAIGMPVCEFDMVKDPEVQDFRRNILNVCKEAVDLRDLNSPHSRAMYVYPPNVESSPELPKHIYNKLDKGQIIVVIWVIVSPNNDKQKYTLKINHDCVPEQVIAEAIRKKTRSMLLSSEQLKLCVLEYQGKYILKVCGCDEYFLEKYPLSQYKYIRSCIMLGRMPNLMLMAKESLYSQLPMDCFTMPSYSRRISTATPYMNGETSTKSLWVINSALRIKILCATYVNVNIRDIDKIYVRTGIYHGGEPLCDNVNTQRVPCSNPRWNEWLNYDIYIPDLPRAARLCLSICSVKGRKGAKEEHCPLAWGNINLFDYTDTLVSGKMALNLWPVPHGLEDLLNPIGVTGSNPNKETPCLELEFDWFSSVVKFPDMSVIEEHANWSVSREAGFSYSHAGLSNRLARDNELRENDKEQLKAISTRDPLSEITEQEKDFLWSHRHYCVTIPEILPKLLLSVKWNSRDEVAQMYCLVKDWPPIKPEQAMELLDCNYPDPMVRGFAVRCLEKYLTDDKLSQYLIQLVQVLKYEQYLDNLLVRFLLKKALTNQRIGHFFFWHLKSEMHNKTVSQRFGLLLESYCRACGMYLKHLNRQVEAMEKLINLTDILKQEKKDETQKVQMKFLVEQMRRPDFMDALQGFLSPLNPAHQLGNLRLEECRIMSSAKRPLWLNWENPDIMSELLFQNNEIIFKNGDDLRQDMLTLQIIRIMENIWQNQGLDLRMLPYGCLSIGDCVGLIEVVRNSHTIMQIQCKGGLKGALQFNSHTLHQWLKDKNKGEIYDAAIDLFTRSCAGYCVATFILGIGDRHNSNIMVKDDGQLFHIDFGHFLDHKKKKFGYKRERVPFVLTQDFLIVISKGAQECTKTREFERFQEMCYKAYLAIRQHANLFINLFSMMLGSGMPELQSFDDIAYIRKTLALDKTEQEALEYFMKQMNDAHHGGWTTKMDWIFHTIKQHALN
As a reminder, the IC50 is the concentration needed to halve the response being measured. In the case of `CCc1ncnc(-c2ccc(C(=O)N3CCC4(CC3)OCCCO4)c(Cl)c2)c1C#Cc1ccc(N)nc1` [Example E-19], the half-inhibitory concentration (IC50) turned out to be 90.5 nM. As for `CCc1ncnc(-c2ccc(C(=O)N(C)O)c(Cl)c2)c1C#Cc1ccc(N)nc1` [Example E-35], the half-maximal inhibitory concentration (IC50) turned out to be 67.4 nM.

In the case of `CCc1ncnc(-c2ccc(C(=O)N3CCN(C4CCS(=O)(=O)C4)CC3)c(F)c2)c1C#Cc1ccc(N)nc1C` [Example D-17], the IC50 was 178 nM. Take `Cc1ncnc(-c2ccc(N3CCCCC3)nc2)c1C#Cc1ccc(N)nc1` [Example C-25]: the IC50 is 64 nM. With `CCc1ncnc(-c2cc(F)c(C(=O)N3CCn4c(COC)nnc4C3)c(F)c2)c1C#Cc1ccc(N)nc1` [Example E-170], the IC50 amounted to 96.5 nM. Turning to `CCc1ncnc(-c2ccc(C(=O)NC3CC(N4CCC(N5CCCC5)CC4)C3)c(F)c2)c1C#Cc1ccc(N)nc1` [Example D-208], the IC50 stood at 308 nM. Regarding `CCc1ncnc(-c2ccc(C(=O)N3CCCCO3)c(F)c2)c1C#Cc1ccc(N)nc1` [Example D-219], the IC50 was 105 nM. For `CCc1ncnc(-c2ccc(C(=O)N3CCC(C4CCN(C)CC4)CC3)c(Cl)c2)c1C#Cc1ccc(N)nc1` [Example D-139], the IC50 is 374 nM. In the case of `CCc1ncnc(-c2ccc(C(=O)N3CCn4c(C)cnc4C3)c(F)c2)c1C#Cc1ccc(N)nc1` [Example E-247], the IC50 is 95.4 nM. Take `CCc1ncnc(-c2ccc(C(=O)N3CC[C@H](O)C3)c(Cl)c2)c1C#Cc1ccc(N)nc1` [Example D-145]: the 50% inhibitory concentration (IC50) was found to be 58 nM. To `CCc1ncnc(-c2ccc(C(=O)N3CCN(C(C)C)CC3)c(F)c2)c1C#Cc1ccc(N)nc1` [Example D-122] belongs 198 nM; to `CCc1ncnc(-c2ccc(C(=O)N3CCn4cnnc4C3)c(F)c2)c1C#Cc1ccc(N)nc1` [Example E-248], 50.8 nM; to `CCc1ncnc(-c2cc(F)c(C(=O)N3CCC(CO)CC3)c(F)c2)c1C#Cc1ccc(NC)nc1` [Example E-220], 293 nM. For `CCc1ncnc(-c2ccc(C(=O)N3CC(C)NC(C)C3)c(F)c2)c1C#Cc1ccc(N)nc1` [Example D-132], the IC50 came to 184 nM. Turning to `CCNc1ccc(C#Cc2c(CC)ncnc2-c2ccc(C(=O)N3CCC4(CC3)CN(C(=O)OC(C)(C)C)C4)c(F)c2)cn1` [Example E-266], the IC50 turned out to be 560 nM. As to `CCc1ncnc(-c2ccc(C(=O)N3CCN(CC4CC4)CC3)c(C)c2)c1C#Cc1ccc(N)nc1` [Example E-116], the IC50 was determined as 110 nM.

Regarding `CCc1ncnc(-c2ccc(C(=O)N3CC[C@@H](N(C)C)C3)c(Cl)c2)c1C#Cc1ccc(NC)nc1` [Example E-188], the IC50 amounted to 356 nM. With `CCc1ncnc(-c2cc(F)c(C(=O)N3CCn4cnnc4C3)c(Cl)c2)c1C#Cc1ccc(N)nc1` [Example E-156], the IC50 is 18.3 nM. `CCc1ncnc(-c2ccc(C(=O)N3CCC4(CCN(C)CC4)CC3)c(Cl)c2)c1C#Cc1ccc(N)nc1` [Example E-26]: the IC50 came to 498 nM.

As to `CCc1ncnc(-c2cc(F)c(C(=O)N3CCC(C(C)O)CC3)c(F)c2)c1C#Cc1ccc(NC)nc1` (stereo not drawn) [Example E-213], the IC50 is 465 nM. Then `CCc1ncnc(-c2ccc(C(=O)N(C)C)c(F)c2)c1C#Cc1ccc(N)nc1` [Example C-15A], with 57 nM. `CCc1ncnc(-c2ccc(C(=O)N3CCN(CC(=O)N(C)C)CC3)c(F)c2)c1C#Cc1ccc(N)nc1` [Example D-85]: the IC50 was 115 nM.

Regarding `CCc1ncnc(-c2ccc(C(=O)NC3CCN(C)C3)c(F)c2)c1C#Cc1ccc(N)nc1` [Example D-199], the IC50 stood at 347 nM. With `CCc1ncnc(-c2ccc(C(=O)N3CC[C@@H](N(C)C)C3)c(F)c2)c1C#Cc1ccc(NC)nc1` [Example E-180], the IC50 was 357 nM. Turning to `CCc1ncnc(-c2cc(F)c(C(=O)N3CCN(C4CCCC4O)CC3)c(F)c2)c1C#Cc1ccc(N)nc1` (stereo not drawn) [Example E-301], the IC50 worked out at 106 nM. For `CCc1ncnc(-c2ccc(C(=O)N3CCN(C4CCOCC4)CC3)c(Cl)c2)c1C#Cc1ccc(N)nc1` [Example D-31], the IC50 worked out at 97 nM. `CCc1ncnc(-c2ccc(C(=O)N3CCN4CCCC[C@H]4C3)c(F)c2)c1C#Cc1ccc(N)nc1` [Example E-144]: the IC50 came to 169 nM. Turning to `CCc1ncnc(-c2ccc(C(=O)N3CCN(Cc4ccccc4)CC3)c(F)c2)c1C#Cc1ccc(N)nc1` [Example D-97], the IC50 stood at 476 nM.

Regarding `CCc1ncnc(-c2ccc(C(=O)N3CCN(CC(C)O)CC3)c(F)c2)c1C#Cc1ccc(N)nc1` (stereo not drawn) [Example E-296], the IC50 came out at 122 nM. `CCc1ncnc(-c2ccc(C(=O)N(C)C3CCN(C)CC3)c(F)c2)c1C#Cc1ccc(N)nc1` [Example D-3]: the IC50 is 574 nM. Then `CCc1ncnc(-c2ccc(C(=O)N3CCN4CCC[C@H]4C3)c(F)c2)c1C#Cc1ccc(N)nc1` [Example E-142], with 107 nM; and `CCc1ncnc(-c2cc(F)c(C(=O)N3CCN(Cc4nc(C)c(C)o4)CC3)c(Cl)c2)c1C#Cc1ccc(N)nc1` [Example E-307], with 193 nM. For `CCc1ncnc(-c2ccc(C(=O)N(C)CCOC)c(F)c2)c1C#Cc1ccc(N)nc1` [Example D-7], the IC50 amounted to 103 nM. In the case of `CCc1ncnc(-c2ccc(C(=O)N3CCN(CC(F)F)CC3)c(F)c2)c1C#Cc1ccc(N)nc1C` [Example D-12], the IC50 is 163 nM. To `CCc1ncnc(-c2cc(F)c(C(=O)N3CCN(CC(F)F)CC3)c(F)c2)c1C#Cc1ccc(NC)nc1` [Example E-217] belongs 327 nM; to `CCc1ncnc(-c2ccc(C(=O)N3CCOCC3)c(OC)c2)c1C#Cc1ccc(N)nc1` [Example E-48], 100 nM.

As for `CCc1ncnc(-c2ccc(C(=O)N(C)CCN3CCCC3=O)c(Cl)c2)c1C#Cc1ccc(N)nc1` [Example E-85], the IC50 is 56.4 nM.

Consider `CCc1ncnc(-c2ccc(C(=O)N(C)CCCOC)c(F)c2)c1C#Cc1ccc(N)nc1` [Example D-1], for which the IC50 is 78 nM.

Regarding `CCc1ncnc(-c2ccc(C(=O)N3CCN(C(C)(C)C)CC3)c(OC)c2)c1C#Cc1ccc(N)nc1` [Example D-48], the IC50 is 251 nM. Turning to `CCc1ncnc(-c2ccc(C(=O)N3CC(O)CO3)c(OC)c2)c1C#Cc1ccc(N)nc1` (stereo not drawn) [Example E-49], the half-maximal inhibitory concentration (IC50) is 74.5 nM. In the case of `CCc1ncnc(-c2ccc(C(=O)N3CCN(C(C)=O)CC3)c(C)c2)c1C#Cc1ccc(N)nc1` [Example E-108], the IC50 stood at 71.5 nM.

For the molecule `CCc1ncnc(-c2cc(F)c(C(=O)N3CCN(CCNS(C)(=O)=O)CC3)c(Cl)c2)c1C#Cc1ccc(N)nc1` [Example E-159], the half-inhibitory concentration (IC50) stood at 25.8 nM.

Take `CCNc1ccc(C#Cc2c(CC)ncnc2-c2ccc(C(=O)N3CCN(CCCS(C)(=O)=O)CC3)c(F)c2)cn1` [Example E-258]: the IC50 stood at 110 nM. Then `CCNc1ccc(C#Cc2c(CC)ncnc2-c2ccc(C(=O)N3CCn4c(C)cnc4C3)c(F)c2)cn1` [Example E-262], with 134 nM.

`CCc1ncnc(-c2cc(F)c(C(=O)N3CCN(CC)CC3)c(Cl)c2)c1C#Cc1ccc(N)nc1` [Example E-235]: the IC50 turned out to be 178 nM. In the case of `CCc1ncnc(-c2cc(F)c(C(=O)N3CCN(C)CC3)c(F)c2)c1C#Cc1ccc(N)nc1` [Example E-1], the IC50 was determined as 132 nM. For the molecule `CCc1ncnc(-c2ccc(C(=O)N3CCN(CCO)CC3)c(Cl)c2)c1C#Cc1ccc(N)nc1` [Example D-36], the IC50 came out at 84 nM. Regarding `Cc1ncnc(-c2ccc(C(=O)N(C)C)cc2)c1C#Cc1ccc(N)nc1` [Example C-6], the IC50 worked out at 86 nM. With `CCc1ncnc(-c2cc(F)c(C(=O)N3CCN(C4COC4)CC3)c(F)c2)c1C#Cc1ccc(N)nc1` [Example E-275], the IC50 was 141 nM.

Regarding `CCc1ncnc(-c2ccc(C(=O)N3CCn4ccnc4C3)c(F)c2)c1C#Cc1ccc(N)nc1` [Example E-249], the half-maximal inhibitory concentration (IC50) came to 60.5 nM.

Regarding `CCc1ncnc(-c2ccc(C(=O)N3CCn4c(C)cnc4C3)c(Cl)c2)c1C#Cc1ccc(N)nc1` [Example E-254], the IC50 came out at 31.6 nM. Consider `CCc1ncnc(-c2ccc(C(=O)N3CCN(C(C)(C)C)CC3)c(Cl)c2)c1C#Cc1ccc(N)nc1` [Example D-43], for which the IC50 turned out to be 436 nM. Turning to `CCc1ncnc(-c2cc(F)c(C(=O)N3CCC(C(C)(C)O)CC3)c(Cl)c2)c1C#Cc1ccc(N)nc1` [Example E-237], the IC50 is 121 nM.

`CCc1ncnc(-c2ccc(C(=O)NC3CC(N4CCN(C)CC4)C3)c(F)c2)c1C#Cc1ccc(N)nc1` [Example D-198]: the half-inhibitory concentration (IC50) was 203 nM. Regarding `CCc1ncnc(-c2ccc(C(=O)N3CCC(O)CC3)c(C)c2)c1C#Cc1ccc(N)nc1` [Example E-132], the IC50 came out at 45.5 nM.

In the case of `Cc1ncnc(-c2ccc(C(=O)N3CCN(CCO)CC3)cc2)c1C#Cc1ccc(N)nc1` [Example D-194], the IC50 stood at 106 nM. As to `CCc1ncnc(-c2ccc(C(=O)NCCN3CCOCC3)c(Cl)c2)c1C#Cc1ccc(N)nc1` [Example E-84], the IC50 stood at 113 nM.

Consider `CCc1ncnc(-c2ccc(C(=O)N3CC4(CNC4)C3)c(F)c2)c1C#Cc1ccc(N)nc1` [Example E-269], for which the IC50 came to 252 nM. Take `CCc1ncnc(-c2ccc(C(=O)N3C[C@H]4CN(C(=O)OC(C)(C)C)C[C@H]4C3)c(F)c2)c1C#Cc1ccc(N)nc1` [Example E-329]: the IC50 stood at 238 nM. To `CCc1ncnc(-c2ccc(C(=O)N3CCC[C@@H]3CO)c(F)c2)c1C#Cc1ccc(N)nc1` [Example D-131] belongs 119 nM; to `CCc1ncnc(-c2cc(F)c(C(=O)N3CCN(CC4CC4)CC3)c(F)c2)c1C#Cc1ccc(N)nc1` [Example E-7], 189 nM; to `CCc1ncnc(-c2ccc(C(=O)N3CCC(O)(CC)CC3)c(F)c2)c1C#Cc1ccc(N)nc1` [Example D-125], 269 nM. As for `CCc1ncnc(-c2cc(F)c(C(=O)N3CCC4(CC3)CC(=O)CO4)c(Cl)c2)c1C#Cc1ccc(N)nc1` [Example E-311], the IC50 amounted to 69.1 nM. With `CCc1ncnc(-c2ccc(C(=O)N3CCN(C)CC3)c(C(F)(F)F)c2)c1C#Cc1ccc(N)nc1` [Example E-229], the IC50 was determined as 174 nM. Turning to `CCc1ncnc(-c2cc(Cl)c(C(=O)N3CC[C@@H](N(C)C)C3)c(Cl)c2)c1C#Cc1ccc(N)nc1` [Example E-196], the IC50 came out at 235 nM. In the case of `CCc1ncnc(-c2ccc(C(=O)N3CCC(N4CCOCC4)CC3)c(Cl)c2)c1C#Cc1ccc(NC)nc1` [Example E-185], the IC50 came to 202 nM.

The record behind these values is US8633183B2 (priority 2010, dated 2014).
